ERK1/2 activity data for one molecule are collected here from patent US20040005294A1, “IGFBP-3 in the diagnosis and treatment of cancer” (priority 2002, published 2004).

The assay concerns ERK1/2 in 1799 cells. In words: Immune complex kinase assay for ERK1/2. It counts as cell-based, human. The note with it: 10^−7 M, 0-24 h, then 50 ng/mL IGF-I for 15 min. The protocol:
Approximately 5×10^6 1799 cells were treated with 10^−7 M deguelin or 0.1% DMSO for various time periods in the absence of any additional stimulatory growth factors. The cells were then treated with 50 ng/mL IGF-I for 15 minutes to activate MAPK. Total cell extracts were prepared in lysis buffer (Lonardo et al. 2002), and ERK-1/2 or c-Jun N-terminal kinase (JNK) were immunoprecipitated from 100 μg of each cell extract using antibodies (1 μg) that recognize ERK1/2 or JNK (Santa Cruz Biotechnology) and protein-A sepharose beads (20 μL) (Amersham Pharmacia Biotech). Kinase assays were performed by incubating the beads with 30 μL of kinase buffer to which 5 μCi of [γ^32P]ATP (2000 cpm/pmol) and 1 μg of substrate (myelin basic protein [MBP; Calbiochem, La Jolla, Calif.] or GST-cJun [Santa Cruz Biotechnology]) were added, as previously described (Lee et al., 2002). The samples were suspended in Laemmli buffer, boiled for 5 min, and then analyzed by SDS-polyacrylamide gel clectrophoresis. The gel was dried and autoradiographed. Total cell lysates from Jurkat cells (Upstate Biotechnology, Inc.) and H1299 NSCLC treated with 50 ng/mL IGF-I for 15 min were used as positive controls. Changes in the level of phosphorylation in MBP or GST-cJun reflect changes in Erk1/2 and JNK activity, respectively.

With `COc1cc2c(cc1OC)[C@@H]1C(=O)c3ccc4c(c3O[C@@H]1CO2)C=CC(C)(C)O4` [deguelin, Deguelin], the ERK1/2 activity result is listed as “no discernible effect”.
